# Experimental data as given in ChEMBL document CHEMBL3885861, “Open TG-GATES”.
# Organism: Rattus norvegicus
# Test: Open TG-GATES - Regimen: Single
# Format: toxicity, organism-based, Sprague-Dawley
# Parameters: regimen Single, gender Male, age 6 weeks
# Conditions: in vivo, po, route gavage; for gamma-GTP / ALP / ALT / AST / BUN / CRE / Ca / DBIL / GLC / IP / K / LDH / Na / PL / RALB / TBIL / TC / TG / TP: tissue Plasma; for APTT / Bas / Eos / Fbg / Hb / Ht / Lym / MCH / MCHC / MCV / Mono / Neu / PT / Plat / RBC / Ret / WBC: tissue Blood; for KIDNEY_L / KIDNEY_R / KIDNEY_TOTAL: tissue Kidney; for LIVER: tissue Liver
compound,measurement,setting,value
CSc1ccc2c(c1)N(CCC1CCCCN1C)c1ccccc1S2 (stereo not drawn) [THIORIDAZINE],gamma-GTP,"0 mg/kg, 24 h, dose level Control",1.2 IU/L
same,TERMINAL_BW,"10 mg/kg, 3 h, dose level Low",216.5 g
same,APTT,"10 mg/kg, 3 h, dose level Low",16.2 s
same,Bas,"10 mg/kg, 3 h, dose level Low",0%
same,Eos,"10 mg/kg, 3 h, dose level Low",0.6%
same,Fbg,"10 mg/kg, 3 h, dose level Low",201 mg/dL
same,Hb,"10 mg/kg, 3 h, dose level Low",12.6 g/dL
same,Ht,"10 mg/kg, 3 h, dose level Low",37.5%
same,Lym,"10 mg/kg, 3 h, dose level Low",77%
same,MCH,"10 mg/kg, 3 h, dose level Low",22.5 pg
same,MCHC,"10 mg/kg, 3 h, dose level Low",33.6%
same,MCV,"10 mg/kg, 3 h, dose level Low",67.1 fL
same,Mono,"10 mg/kg, 3 h, dose level Low",9.8%
same,Neu,"10 mg/kg, 3 h, dose level Low",13%
same,PT,"10 mg/kg, 3 h, dose level Low",12.2 s
same,Plat,"10 mg/kg, 3 h, dose level Low",94.9 x10_4/uL
same,RBC,"10 mg/kg, 3 h, dose level Low",560.4 x10_4/ul
same,Ret,"10 mg/kg, 3 h, dose level Low",8%
same,WBC,"10 mg/kg, 3 h, dose level Low",87.7 x10_2/uL
same,KIDNEY_L,"10 mg/kg, 3 h, dose level Low",1 g
same,KIDNEY_R,"10 mg/kg, 3 h, dose level Low",1 g
same,KIDNEY_TOTAL,"10 mg/kg, 3 h, dose level Low",2 g
same,LIVER,"10 mg/kg, 3 h, dose level Low",10.5 g
same,ALP,"10 mg/kg, 3 h, dose level Low",973.8 IU/L
same,ALT,"10 mg/kg, 3 h, dose level Low",36.8 IU/L
same,AST,"10 mg/kg, 3 h, dose level Low",65.4 IU/L
same,BUN,"10 mg/kg, 3 h, dose level Low",13.2 mg/dL
same,CRE,"10 mg/kg, 3 h, dose level Low",0.5 mg/dL
same,Ca,"10 mg/kg, 3 h, dose level Low",11.2 mg/dL
same,DBIL,"10 mg/kg, 3 h, dose level Low",0.016 mg/dL
same,GLC,"10 mg/kg, 3 h, dose level Low",205.6 mg/dL
same,IP,"10 mg/kg, 3 h, dose level Low",10.7 mg/dL
same,K,"10 mg/kg, 3 h, dose level Low",5.1 meq/L
same,LDH,"10 mg/kg, 3 h, dose level Low",95 IU/L
same,Na,"10 mg/kg, 3 h, dose level Low",139.4 meq/L
same,PL,"10 mg/kg, 3 h, dose level Low",140.2 mg/dL
same,RALB,"10 mg/kg, 3 h, dose level Low",3.7 g/dL
same,TBIL,"10 mg/kg, 3 h, dose level Low",0.3 mg/dL
same,TC,"10 mg/kg, 3 h, dose level Low",76.8 mg/dL
same,TG,"10 mg/kg, 3 h, dose level Low",69.2 mg/dL
same,TP,"10 mg/kg, 3 h, dose level Low",5.3 g/dL
same,gamma-GTP,"10 mg/kg, 3 h, dose level Low",0.8 IU/L
same,TERMINAL_BW,"10 mg/kg, 6 h, dose level Low",214.5 g
same,APTT,"10 mg/kg, 6 h, dose level Low",16.8 s
same,Bas,"10 mg/kg, 6 h, dose level Low",0%
same,Eos,"10 mg/kg, 6 h, dose level Low",1%
same,Fbg,"10 mg/kg, 6 h, dose level Low",210.6 mg/dL
same,Hb,"10 mg/kg, 6 h, dose level Low",13.1 g/dL
same,Ht,"10 mg/kg, 6 h, dose level Low",39%
same,Lym,"10 mg/kg, 6 h, dose level Low",78.8%
same,MCH,"10 mg/kg, 6 h, dose level Low",22 pg
same,MCHC,"10 mg/kg, 6 h, dose level Low",33.5%
same,MCV,"10 mg/kg, 6 h, dose level Low",65.8 fL
same,Mono,"10 mg/kg, 6 h, dose level Low",8.6%
same,Neu,"10 mg/kg, 6 h, dose level Low",12%
same,PT,"10 mg/kg, 6 h, dose level Low",12.2 s
same,Plat,"10 mg/kg, 6 h, dose level Low",109 x10_4/uL
same,RBC,"10 mg/kg, 6 h, dose level Low",593 x10_4/ul
same,Ret,"10 mg/kg, 6 h, dose level Low",8.6%
same,WBC,"10 mg/kg, 6 h, dose level Low",129.7 x10_2/uL
same,KIDNEY_L,"10 mg/kg, 6 h, dose level Low",1 g
same,KIDNEY_R,"10 mg/kg, 6 h, dose level Low",1 g
same,KIDNEY_TOTAL,"10 mg/kg, 6 h, dose level Low",2 g
same,ALP,"10 mg/kg, 6 h, dose level Low",779.8 IU/L
same,ALT,"10 mg/kg, 6 h, dose level Low",27.6 IU/L
same,AST,"10 mg/kg, 6 h, dose level Low",62.4 IU/L
same,BUN,"10 mg/kg, 6 h, dose level Low",11.8 mg/dL
same,CRE,"10 mg/kg, 6 h, dose level Low",0.5 mg/dL
same,Ca,"10 mg/kg, 6 h, dose level Low",10.8 mg/dL
same,DBIL,"10 mg/kg, 6 h, dose level Low",0.022 mg/dL
same,GLC,"10 mg/kg, 6 h, dose level Low",192.4 mg/dL
same,IP,"10 mg/kg, 6 h, dose level Low",10.2 mg/dL
same,K,"10 mg/kg, 6 h, dose level Low",4.9 meq/L
same,LDH,"10 mg/kg, 6 h, dose level Low",94 IU/L
same,Na,"10 mg/kg, 6 h, dose level Low",138.8 meq/L
same,PL,"10 mg/kg, 6 h, dose level Low",136.4 mg/dL
same,RALB,"10 mg/kg, 6 h, dose level Low",3.7 g/dL
same,TBIL,"10 mg/kg, 6 h, dose level Low",0.4 mg/dL
same,TC,"10 mg/kg, 6 h, dose level Low",71.6 mg/dL
same,TG,"10 mg/kg, 6 h, dose level Low",60.2 mg/dL
same,TP,"10 mg/kg, 6 h, dose level Low",5.4 g/dL
same,gamma-GTP,"10 mg/kg, 6 h, dose level Low",3.2 IU/L
same,TERMINAL_BW,"10 mg/kg, 9 h, dose level Low",213.3 g
same,APTT,"10 mg/kg, 9 h, dose level Low",16.6 s
same,Bas,"10 mg/kg, 9 h, dose level Low",0%
same,Eos,"10 mg/kg, 9 h, dose level Low",1%
same,Fbg,"10 mg/kg, 9 h, dose level Low",209.6 mg/dL
same,Hb,"10 mg/kg, 9 h, dose level Low",12.7 g/dL
same,Ht,"10 mg/kg, 9 h, dose level Low",38.5%
same,Lym,"10 mg/kg, 9 h, dose level Low",72.4%
same,MCH,"10 mg/kg, 9 h, dose level Low",21.3 pg
same,MCHC,"10 mg/kg, 9 h, dose level Low",33.1%
same,MCV,"10 mg/kg, 9 h, dose level Low",64.5 fL
same,Mono,"10 mg/kg, 9 h, dose level Low",6.4%
same,Neu,"10 mg/kg, 9 h, dose level Low",20.6%
same,PT,"10 mg/kg, 9 h, dose level Low",12.3 s
same,Plat,"10 mg/kg, 9 h, dose level Low",105.4 x10_4/uL
same,RBC,"10 mg/kg, 9 h, dose level Low",598.2 x10_4/ul
same,Ret,"10 mg/kg, 9 h, dose level Low",8.1%
same,WBC,"10 mg/kg, 9 h, dose level Low",80.7 x10_2/uL
same,KIDNEY_L,"10 mg/kg, 9 h, dose level Low",1 g
same,KIDNEY_R,"10 mg/kg, 9 h, dose level Low",1 g
same,KIDNEY_TOTAL,"10 mg/kg, 9 h, dose level Low",2.1 g
same,LIVER,"10 mg/kg, 9 h, dose level Low",9.6 g
same,ALP,"10 mg/kg, 9 h, dose level Low",749.8 IU/L
same,ALT,"10 mg/kg, 9 h, dose level Low",29.4 IU/L
same,AST,"10 mg/kg, 9 h, dose level Low",64.4 IU/L
same,BUN,"10 mg/kg, 9 h, dose level Low",11.2 mg/dL
same,CRE,"10 mg/kg, 9 h, dose level Low",0.6 mg/dL
same,Ca,"10 mg/kg, 9 h, dose level Low",10.8 mg/dL
same,DBIL,"10 mg/kg, 9 h, dose level Low",0.034 mg/dL
same,GLC,"10 mg/kg, 9 h, dose level Low",195.4 mg/dL
same,IP,"10 mg/kg, 9 h, dose level Low",10.7 mg/dL
same,K,"10 mg/kg, 9 h, dose level Low",5.1 meq/L
same,LDH,"10 mg/kg, 9 h, dose level Low",66.8 IU/L
same,Na,"10 mg/kg, 9 h, dose level Low",140 meq/L
same,PL,"10 mg/kg, 9 h, dose level Low",142.2 mg/dL
same,RALB,"10 mg/kg, 9 h, dose level Low",3.8 g/dL
same,TBIL,"10 mg/kg, 9 h, dose level Low",0.4 mg/dL
same,TC,"10 mg/kg, 9 h, dose level Low",77.4 mg/dL
same,TG,"10 mg/kg, 9 h, dose level Low",31.4 mg/dL
same,TP,"10 mg/kg, 9 h, dose level Low",5.3 g/dL
same,gamma-GTP,"10 mg/kg, 9 h, dose level Low",1.6 IU/L
same,TERMINAL_BW,"10 mg/kg, 24 h, dose level Low",232.6 g
same,APTT,"10 mg/kg, 24 h, dose level Low",16.5 s
same,Bas,"10 mg/kg, 24 h, dose level Low",0%
same,Eos,"10 mg/kg, 24 h, dose level Low",1%
same,Fbg,"10 mg/kg, 24 h, dose level Low",215.4 mg/dL
same,Hb,"10 mg/kg, 24 h, dose level Low",13 g/dL
same,Ht,"10 mg/kg, 24 h, dose level Low",39.1%
same,Lym,"10 mg/kg, 24 h, dose level Low",80.4%
same,MCH,"10 mg/kg, 24 h, dose level Low",21.8 pg
same,MCHC,"10 mg/kg, 24 h, dose level Low",33.3%
same,MCV,"10 mg/kg, 24 h, dose level Low",65.3 fL
same,Mono,"10 mg/kg, 24 h, dose level Low",6.6%
same,Neu,"10 mg/kg, 24 h, dose level Low",11.8%
same,PT,"10 mg/kg, 24 h, dose level Low",12.2 s
same,RBC,"10 mg/kg, 24 h, dose level Low",599.2 x10_4/ul
same,Ret,"10 mg/kg, 24 h, dose level Low",8.2%
same,WBC,"10 mg/kg, 24 h, dose level Low",132.3 x10_2/uL
same,KIDNEY_L,"10 mg/kg, 24 h, dose level Low",1 g
same,KIDNEY_R,"10 mg/kg, 24 h, dose level Low",1 g
same,KIDNEY_TOTAL,"10 mg/kg, 24 h, dose level Low",2 g
same,LIVER,"10 mg/kg, 24 h, dose level Low",11.9 g
same,ALP,"10 mg/kg, 24 h, dose level Low",799.2 IU/L
same,ALT,"10 mg/kg, 24 h, dose level Low",39.6 IU/L
same,AST,"10 mg/kg, 24 h, dose level Low",68.6 IU/L
same,BUN,"10 mg/kg, 24 h, dose level Low",19 mg/dL
same,CRE,"10 mg/kg, 24 h, dose level Low",0.5 mg/dL
same,Ca,"10 mg/kg, 24 h, dose level Low",11.3 mg/dL
same,DBIL,"10 mg/kg, 24 h, dose level Low",0.074 mg/dL
same,GLC,"10 mg/kg, 24 h, dose level Low",193.6 mg/dL
same,IP,"10 mg/kg, 24 h, dose level Low",8.7 mg/dL
same,K,"10 mg/kg, 24 h, dose level Low",4.9 meq/L
same,LDH,"10 mg/kg, 24 h, dose level Low",77.4 IU/L
same,Na,"10 mg/kg, 24 h, dose level Low",138.2 meq/L
same,PL,"10 mg/kg, 24 h, dose level Low",154.8 mg/dL
same,RALB,"10 mg/kg, 24 h, dose level Low",4 g/dL
same,TBIL,"10 mg/kg, 24 h, dose level Low",0.4 mg/dL
same,TC,"10 mg/kg, 24 h, dose level Low",81 mg/dL
same,TG,"10 mg/kg, 24 h, dose level Low",116.8 mg/dL
same,TP,"10 mg/kg, 24 h, dose level Low",5.8 g/dL
same,gamma-GTP,"10 mg/kg, 24 h, dose level Low",1.4 IU/L
